What all share (format): protein-complex assay
The target of assay [1] is Glutamate NMDA receptor. The assay is described as follows: Compound was evaluated for its ability to displace [3H]CPP ligand from N-methyl-D-aspartate glutamate receptor.
Assay [2] has as its target Glutamate NMDA receptor. Briefly: Displacement of [3H]CPP or [3H]-CGS- 19755 from rat N-methyl-D-aspartate glutamate receptor. For orientation: Loss of bound radioactivity is the signal in a displacement assay; it reports binding, not function.
Assay [3] addresses Glutamate NMDA receptor. The assay is described as follows: Compound was evaluated for its ability to displace [3H]CPP or [3H]-CGS- 19755 ligand from N-methyl-D-aspartate glutamate receptor.
For assay [4], the target named is Glutamate NMDA receptor. Briefly: Compound was evaluated for its ability to displace [3H]CPP ligand from N-methyl-D-aspartate (NMDA) receptor.
For assay [5], the target named is Glutamate NMDA receptor. The assay is described as follows: Compound was evaluated for its ability to displace [3H]-CGS- 19755 ligand from N-methyl-D-aspartate glutamate receptor.
In assay [6] the target is Glutamate NMDA receptor. The assay is described as follows: (§1) Compound was evaluated for its ability to displace [3H]CPP or [3H]-CGS- 19755 ligand from N-methyl-D-aspartate (NMDA) receptor.
The target of assay [7] is Glutamate NMDA receptor. Briefly: Compound was evaluated for its ability to displace [3H]-CPP ligand from N-methyl-D-aspartate (NMDA) receptor.
For assay [8], the target named is Glutamate NMDA receptor. The description is as §1. This is another data set of the same source.

As usually defined, the Ki is a dissociation constant, usually derived from enzyme kinetics or from competition with a known ligand. Regarding `NC(CCCP(=O)(O)O)C(=O)O` (configuration not stated), the figures for the Ki in assay [1] and in assay [2] were 260 nM and less than 1000 nM, respectively. `CC(C)([C@@H]1CCN[C@H](C(=O)O)C1)P(=O)(O)O` yielded a Ki in assay [2] of more than 1000 nM.

As for `NC(CCCCP(=O)(O)O)C(=O)O` (configuration not stated), the Ki in assay [3] is more than 1000 nM; in assay [4], 42 nM. Turning to `CC([C@@H]1CCN[C@H](C(=O)O)C1)P(=O)(O)O` (some centres not stated), the Ki in assay [2] was more than 1000 nM. On to `O=C(O)[C@H]1NCCC[C@H]1CCP(=O)(O)O`, for which the Ki in assay [2] was more than 1000 nM. Same read-out and setting: in the case of `C[C@@H]1CN[C@H](C(=O)O)C[C@@H]1CP(=O)(O)O` it was less than 1000 nM.

With `C[C@@H]1[C@H](CP(=O)(O)O)CCN[C@@H]1C(=O)O`, the Ki in assay [2] was more than 1000 nM.

The compound `C[C@H]1C[C@@H](CP(=O)(O)O)C[C@@H](C(=O)O)N1` showed a Ki in assay [2] of more than 1000 nM. Still for that read-out and setting: in the case of `NC(CCc1ccccc1CP(=O)(O)O)C(=O)O` (configuration not stated) it was more than 1000 nM; in that of `O=C(O)[C@@H]1C[C@H](CCCP(=O)(O)O)CCN1`, less than 1000 nM. As to `O=C(O)[C@@H]1C[C@H](C/C=C/P(=O)(O)O)CCN1`, the Ki in assay [5] was 72 nM; in assay [2], less than 1000 nM.

Consider `O=C(O)[C@@H]1C[C@H](/C=C/CP(=O)(O)O)CCN1`, for which the Ki in assay [5] is 14 nM; in assay [2] it was less than 1000 nM. For `NC(CCCCCP(=O)(O)O)C(=O)O` (configuration not stated) [AP-7], in that order: 912 nM and less than 1000 nM. As for `C/C(=C\C(N)C(=O)O)CP(=O)(O)O` (configuration not stated) [CGP-37849], the values for the Ki in assay [6] and in assay [7] were less than 1000 nM and 35 nM, respectively. In the case of `O=C(O)[C@@H]1C[C@H](CP(=O)(O)O)CCN1` [SELFOTEL], the results for the Ki in assay [6] and in assay [8] were less than 1000 nM and 130 nM, respectively.

Source of the values: ChEMBL document CHEMBL1126172, “Modeling of competitive phosphono amino acid NMDA receptor antagonists” (J Med Chem, 1992).
